Test results: ChEMBL document CHEMBL2029250 (Bioorg Med Chem Lett, 2012)
pEC50, pIC50: −log10 of the molar value. Activity calls are given as the source filed them. No cut-off for these calls is given here.

Legend:
[1] = biological target: T1, Peroxisome proliferator-activated receptor alpha (Homo sapiens, UniProt Q07869); assay: Transactivation of human PPARalpha expressed in african green monkey CV1 cells by luciferase reporter gene assay; assay type: cell-based, CV-1
T1 sequence (Q07869 whole entry): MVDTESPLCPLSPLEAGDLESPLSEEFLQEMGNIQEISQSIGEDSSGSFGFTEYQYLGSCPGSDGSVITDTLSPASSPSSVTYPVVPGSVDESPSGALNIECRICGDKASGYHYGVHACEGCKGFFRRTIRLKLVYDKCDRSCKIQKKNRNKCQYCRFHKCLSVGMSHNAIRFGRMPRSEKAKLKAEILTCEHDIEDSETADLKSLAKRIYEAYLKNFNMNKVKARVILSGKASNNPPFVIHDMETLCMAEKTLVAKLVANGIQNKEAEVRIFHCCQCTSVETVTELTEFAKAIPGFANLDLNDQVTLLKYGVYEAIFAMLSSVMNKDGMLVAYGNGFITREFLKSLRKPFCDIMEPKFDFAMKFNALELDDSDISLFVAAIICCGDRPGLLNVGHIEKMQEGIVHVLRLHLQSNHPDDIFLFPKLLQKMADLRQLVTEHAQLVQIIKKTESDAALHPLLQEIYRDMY

[2] = biological target: T2, Peroxisome proliferator-activated receptor gamma (Homo sapiens, UniProt P37231); assay: Transactivation of human PPARgamma expressed in african green monkey CV1 cells by luciferase reporter gene assay; assay type: cell-based, CV-1
T2 sequence (P37231 whole entry): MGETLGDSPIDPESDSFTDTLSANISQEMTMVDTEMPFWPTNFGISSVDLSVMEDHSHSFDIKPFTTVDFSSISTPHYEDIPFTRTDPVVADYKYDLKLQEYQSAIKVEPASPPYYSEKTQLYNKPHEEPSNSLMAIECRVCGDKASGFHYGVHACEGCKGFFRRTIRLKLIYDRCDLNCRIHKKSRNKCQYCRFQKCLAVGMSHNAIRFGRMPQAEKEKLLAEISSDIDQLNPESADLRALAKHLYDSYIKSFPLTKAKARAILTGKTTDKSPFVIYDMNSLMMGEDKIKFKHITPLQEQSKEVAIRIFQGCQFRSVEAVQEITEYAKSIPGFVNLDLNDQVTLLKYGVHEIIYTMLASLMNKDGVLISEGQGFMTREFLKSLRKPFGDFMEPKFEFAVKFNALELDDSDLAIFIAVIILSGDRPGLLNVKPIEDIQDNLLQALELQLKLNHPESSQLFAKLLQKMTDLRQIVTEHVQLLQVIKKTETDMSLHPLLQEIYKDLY

[3] = biological target: T1, Peroxisome proliferator-activated receptor alpha; assay: Binding affinity to GST-tagged human PPARalpha by TR-FRET analysis
[4] = biological target: T2, Peroxisome proliferator-activated receptor gamma
[5] = biological target: T3, Peroxisome proliferator-activated receptor delta (Homo sapiens, UniProt Q03181); settings: cv-1
T3 sequence (Q03181 whole entry): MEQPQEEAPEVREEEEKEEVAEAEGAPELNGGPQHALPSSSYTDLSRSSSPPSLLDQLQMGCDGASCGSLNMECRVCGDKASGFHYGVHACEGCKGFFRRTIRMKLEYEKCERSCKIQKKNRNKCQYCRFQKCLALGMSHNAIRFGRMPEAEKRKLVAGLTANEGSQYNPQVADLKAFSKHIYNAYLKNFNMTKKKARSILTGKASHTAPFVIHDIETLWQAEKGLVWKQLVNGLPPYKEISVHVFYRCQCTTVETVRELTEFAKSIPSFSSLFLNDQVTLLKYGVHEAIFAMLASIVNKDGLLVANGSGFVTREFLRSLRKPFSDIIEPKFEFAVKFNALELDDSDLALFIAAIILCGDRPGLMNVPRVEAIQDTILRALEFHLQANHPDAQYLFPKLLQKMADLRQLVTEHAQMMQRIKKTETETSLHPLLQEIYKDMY

[6] = biological target: T4, Peroxisome proliferator-activated receptor alpha (Homo sapiens) (UniProt Q07869); assay: Transactivation of human PPARalpha expressed in african green monkey CV1 cells at 30 uM by luciferase reporter gene assay relative to Wy14643; assay type: cell-based; settings: CV-1
T4 sequence (whole entry): T1 sequence (Q07869 whole entry)

[7] = biological target: T5, Peroxisome proliferator-activated receptor gamma (Homo sapiens) (UniProt P37231); assay: Transactivation of human PPARgamma expressed in african green monkey CV1 cells at 30 uM by luciferase reporter gene assay relative to […]; assay type: cell-based; settings: CV-1
T5 sequence (whole entry): T2 sequence (P37231 whole entry)

[8] = biological target: T6, Peroxisome proliferator-activated receptor delta (Homo sapiens) (UniProt Q03181); settings: CV-1, 30 uM
T6 sequence (whole entry): T3 sequence (Q03181 whole entry)

HepG2 [9] = assay: Increase in CPT1 mRNA expression in human HepG2 cells at 10 uM; assay type: functional, cell-based
3T3-L1 [10] = assay: Induction of preadipocyte differentiation in mouse 3T3L1 cells assessed as […] in lipid droplet accumulation at 10 uM Oil Red O staining; assay type: functional, cell-based
3T3-L1 [11] = assay: Induction of preadipocyte differentiation in mouse 3T3L1 cells assessed as increase in lipid droplet accumulation at 10 uM Oil Red O staining relative to control; assay type: functional, cell-based
HepG2 [12] = assay: Increase in ACS mRNA expression in human HepG2 cells at 10 uM; assay type: functional, cell-based

## CC(C)=CCC/C(C)=C/Cc1c(O)cc(/C=C/c2ccc(O)cc2)cc1O
[1]
  pEC50: 5.10
[2]
  pEC50: 5.10
[3]
  pIC50: 5.92
[4]
  pIC50: 6.96
[5]
  EC50: Not Active

## CC(C)=CCC/C(C)=C/Cc1c(O)cc(/C=C/c2cc(F)cc(F)c2)cc1O
[2]
  pEC50: 5.15
[3]
  pIC50: 5.68
[4]
  pIC50: 6.05
[5]
  EC50: Not Active

## COc1ccc(/C=C/c2cc(O)c(C/C=C(\C)CCC=C(C)C)c(O)c2)cc1
[1]
  pEC50: 4.72
[2]
  pEC50: 4.85
[6]
  Emax: 63%
[7]
  Emax: 66%
[3]
  pIC50: 5.60
[4]
  pIC50: 6.20
[5]
  EC50: Not Active

## CC(C)=CCC/C(C)=C/Cc1c(O)cc(/C=C/c2ccc(F)cc2)cc1O
[1]
  pEC50: 5.22
[2]
  pEC50: 4.96
[6]
  Emax: 88%
[7]
  Emax: 68%
[3]
  pIC50: 5.61
[4]
  pIC50: 5.63
[5]
  EC50: Not Active
[8]
  Emax: 17%

## CC(C)=CCC/C(C)=C/Cc1c(O)cc(/C=C/c2ccc(C(F)(F)F)cc2)cc1O
[3]
  pIC50: 5.48
[4]
  pIC50: 5.09
[5]
  EC50: Not Active

## CC(C)=CCC/C(C)=C/Cc1c(O)cc(/C=C/c2ccc(C#N)cc2)cc1O
[1]
  pEC50: 4.70
[6]
  Emax: 54%
[7]
  Emax: 41%
[3]
  pIC50: 5.46
[4]
  pIC50: 5.92
[5]
  EC50: Not Active

## CC(C)=CCC/C(C)=C/Cc1c(O)cc(/C=C/c2cccc(C(F)(F)F)c2)cc1O
[1]
  pEC50: 5.40
[2]
  pEC50: 5.30
[3]
  pIC50: 5.92
[4]
  pIC50: 6.28
HepG2 [9]
  Activity: Active
3T3-L1 [10]
  Activity: Active
[5]
  EC50: Not Active

## CC(C)=CCC/C(C)=C/Cc1c(O)cc(/C=C/c2ccsc2)cc1O
[1]
  pEC50: 4.85
[2]
  pEC50: 5.22
[6]
  Emax: 56%
[7]
  Emax: 68%
[3]
  pIC50: 5.27
[4]
  pIC50: 6.00
[5]
  EC50: Not Active

## CC(C)=CCC/C(C)=C/Cc1c(O)cc(/C=C/c2ccccc2)cc1O [AMORPHASTILBOL]
[1]
  pEC50: 4.92
[2]
  pEC50: 5.30
[6]
  Emax: 66%
[7]
  Emax: 83%
[3]
  pIC50: 5.82
[4]
  pIC50: 6.07
3T3-L1 [11]
  Activity: Active
HepG2 [9]
  Activity: Active
HepG2 [12]
  Activity: Active
[5]
  EC50: Not Active

## CC(C)=CCC/C(C)=C/Cc1c(O)cc(/C=C/c2ccc(Cl)cc2)cc1O
[3]
  pIC50: 5.13
[4]
  pIC50: 6.27
[5]
  EC50: Not Active

## CC(C)=CCC/C(C)=C/Cc1c(O)cc(/C=C/c2ccc(C=O)cc2)cc1O
[6]
  Emax: 35%
[7]
  Emax: 27%
[3]
  pIC50: 5.55
[4]
  pIC50: 6.05
[5]
  EC50: Not Active

## CC(C)=CCC/C(C)=C/Cc1c(O)cc(/C=C/c2ccoc2)cc1O
[1]
  pEC50: 5.22
[2]
  pEC50: 5.30
[6]
  Emax: 87%
[7]
  Emax: 98%
[3]
  pIC50: 5.69
[4]
  pIC50: 6.19
HepG2 [12]
  Activity: Active
3T3-L1 [10]
  Activity: Active
[5]
  EC50: Not Active
[8]
  Emax: 34%
